Data published in article PMC10786919, “Design-rules for stapled peptides with in vivo activity and their application to Mdm2/X antagonists” (Nature Communications, 2024).
In brackets after ≈: the same amount, converted by molar mass. Positions of bridges follow the written chain, without caps; N, C: chain ends. Non-standard residues stand in square brackets, D forms with d. Residues, ends and D or L forms follow the SMILES beside them. Lys(N3) = [N-]=[N+]=NCCCC[C@H](N)C(=O)O; R8 = C=CCCCCCC[C@@](C)(N)C(=O)O; Cba = N[C@@H](CC1CCC1)C(=O)O; S5 = C=CCCC[C@](C)(N)C(=O)O; hSer = N[C@@H](CCO)C(=O)O; βAla = NCCC(=O)O

How the values were obtained:
[1] = Lactate dehydrogenase (LDH) release assay; format: cell-based
In short: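 Geometric means of at least three independent biological runs are given for LDH release measured in HCT116 cells stably expressing a p53-driven β-lactamase reporter. Plating density was 8000 cells/well; DMSO in wells was 0.5%.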

[2] = Solubility assay (kinetic solubility, PBS pH 7); format: physicochemical; details: pH 7, PBS; for solubility kinetic: pH 7, aqueous buffer, kinetic from dmso stock, read-out: Solubility
In short: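 Quantitation uses an external standard at 100 µM, prepared from 10 mM stock in acetonitrile:methanol:DMSO (10:80:10). Solubility (µM) = (peak area of sample ÷ peak area of standard) × standard concentration.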

Ca Ski cell line = details: 72 h
Protocol: (§1) The medium for CellSensor™ p53RE-bla HCT-116 cells was McCoy’s 5 A Medium (GIBCO16600-002) supplied with 10% FBS (Hyclone, SH30406.05), 100 U/100ug/ml of Pen/Strep (SolarBio, P1400) and 5 μg/ml of blasticidin (GIBCO, A11139). The medium for Ca Ski cells was RPMI1640 (Hyclone, SH3080901B) supplied with 10% FBS and 100 U/100ug/ml of Pen/Strep. All cells were kept in humidified incubators with 5% CO2 at 37 °C. Culture media was changed after one day of subculturing and cells were passed again when there was 70–80% confluence. One day before the assay, the cells were trypsinized, collected, counted and viability was determined. […] The plates were kept in humidified incubators with 5% CO2 at 37 °C overnight. Compounds were prepared as a 10 point, 3x serial dilution in 100% DMSO, starting from a top concentration of 10 mM. […] At the end of the incubation the assay plate was equilibrated at room temperature for approximately 30 minutes prior to the addition of 25 uL of CellTiter-Glo® 2.0 Reagent. The assay plate was mixed for 2 minutes on an orbital shaker to induce cell lysis. Next, the plate was incubated at room temperature for 10 minutes to stabilize the luminescent signal prior to recording the luminescence on a plate reader.

[3] = tested on: CellSensor p53RE-bla HCT-116 Cell Line; details: 72 h
Protocol: as §1

in vitro = details: Nanoclick permeability assay EC50
In short: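 Azido-peptide permeability was read as loss of NanoBRET signal (donor 450 nm, acceptor 610 nm) after adding NanoBret618-azide at 10 μM final.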

[4] = Experimental LogD (partition coefficient); details: for logD: not stated, Partition Coeff LogD

SMILES	EC50 ([1]; LDH: Cytotoxicity assay EC50) [µM]	solubility kinetic [2] [µM]	EC50 (Ca Ski cell line) [µM]	EC50 [3] [µM]	cell entry EC50 (in vitro) [µM]	EPSA (physchem) [A^2]	logD [4]	EC50 ([1]; LDH: Cytotoxicity assay: EC50) [µM]	Solubility [2]	Partition Coeff LogD [4]
CC(=O)N[C@@H](CCCCN=[N+]=[N-])C(=O)NCCC(=O)N[C@@H](Cc1c[nH]cn1)C(=O)N[C@H](C(=O)N[C@@H](Cc1ccccc1)C(=O)N[C@]1(C)CCCCCCC=CCCC[C@@](C)(C(=O)N[C@@H](CO)C(=O)N[C@@H](C)C(=O)N[C@@H](C)C(N)=O)NC(=O)[C@H](CC2CCC2)NC(=O)[C@H](CCC(N)=O)NC(=O)[C@H](C)NC(=O)[C@H](Cc2c[nH]c3ccccc23)NC(=O)[C@H](Cc2ccc(O)cc2)NC(=O)[C@H](CCC(=O)O)NC1=O)[C@@H](C)O [MP-173, AZIDE-ATSP-7041 (L1H)] (Ac-[Lys(N3)][βAla]HTF[R8]EYWAQ[Cba][S5]SAA-NH2; staple 6-13)	> 50	5 (≈ 9.97 µg/mL)	35.3	5.14	0.0406	232	2.73	–	–	–
CC(=O)N[C@@H](CCCCN=[N+]=[N-])C(=O)NCCC(=O)N[C@@H](CCC(=O)O)C(=O)N[C@H](C(=O)N[C@@H](Cc1ccccc1)C(=O)N[C@]1(C)CCCCCCC=CCCC[C@@](C)(C(=O)N[C@@H](CO)C(=O)N[C@@H](C)C(=O)N[C@@H](C)C(N)=O)NC(=O)[C@H](CC2CCC2)NC(=O)[C@H](CCC(N)=O)NC(=O)[C@H](C)NC(=O)[C@H](Cc2c[nH]c3ccccc23)NC(=O)[C@H](Cc2ccc(O)cc2)NC(=O)[C@H](CCC(=O)O)NC1=O)[C@@H](C)O [MP-178]	> 50	169 (≈ 336 µg/mL)	> 49.8	2.74	0.292	254	2.47	–	–	–
CC(=O)N[C@@H](CCCCN=[N+]=[N-])C(=O)NCCC(=O)N[C@@H](CC(C)C)C(=O)N[C@H](C(=O)N[C@@H](Cc1ccccc1)C(=O)N[C@]1(C)CCCCCCC=CCCC[C@@](C)(C(=O)N[C@@H](CO)C(=O)N[C@@H](C)C(=O)N[C@@H](C)C(N)=O)NC(=O)[C@H](CC2CCC2)NC(=O)[C@H](CCC(N)=O)NC(=O)[C@H](Cc2c[nH]c3ccccc23)NC(=O)[C@H](Cc2c[nH]c3ccccc23)NC(=O)[C@H](Cc2ccc(O)cc2)NC(=O)[C@H](CCC(=O)O)NC1=O)[C@@H](C)O [MP-186] (Ac-[Lys(N3)][βAla]LTF[R8]EYWWQ[Cba][S5]SAA-NH2; staple 6-13)	> 50	–	21.5	5.8	0.194	238	3.26	–	–	–
CC(=O)N[C@@H](CCCCN=[N+]=[N-])C(=O)NCCC(=O)N[C@@H](CC(C)C)C(=O)N[C@H](C(=O)N[C@@H](Cc1ccccc1)C(=O)N[C@]1(C)CCCCCCC=CCCC[C@@](C)(C(=O)N[C@@H](CO)C(=O)N[C@@H](C)C(=O)N[C@@H](C)C(N)=O)NC(=O)[C@H](CC2CCC2)NC(=O)[C@H](CCCNC(=N)N)NC(=O)[C@H](C)NC(=O)[C@H](Cc2c[nH]c3ccccc23)NC(=O)[C@H](Cc2ccc(O)cc2)NC(=O)[C@H](CCC(=O)O)NC1=O)[C@@H](C)O [MP-556] (Ac-[Lys(N3)][βAla]LTF[R8]EYWAR[Cba][S5]SAA-NH2; staple 6-13)	> 50	–	> 49.8	3.14	0.149	221	3.15	–	–	–
CC(=O)N[C@@H](CCCCN=[N+]=[N-])C(=O)NCCC(=O)N[C@@H](CC(C)C)C(=O)N[C@H](C(=O)N[C@@H](Cc1ccccc1)C(=O)N[C@]1(C)CCCCCCC=CCCC[C@@](C)(C(=O)N[C@@H](C)C(=O)N[C@@H](CCO)C(=O)N[C@@H](C)C(=O)N[C@@H](C)C(=O)N[C@@H](C)C(=O)N[C@H](C)C(N)=O)NC(=O)[C@H](CC2CCC2)NC(=O)[C@H](CCC(N)=O)NC(=O)[C@H](C)NC(=O)[C@H](Cc2c[nH]c3ccccc23)NC(=O)[C@H](Cc2ccc(O)cc2)NC(=O)[C@H](CCC(=O)O)NC1=O)[C@@H](C)O [MP-831] (Ac-[Lys(N3)][βAla]LTF[R8]EYWAQ[Cba][S5]A[hSer]AAA[dA]-NH2; staple 6-13)	> 50.7	175 (≈ 385 µg/mL)	> 49.8	0.428	> 10	–	3.13	–	–	–
CC(=O)N[C@@H](CCCCN=[N+]=[N-])C(=O)NCCC(=O)N[C@@H](CC(C)C)C(=O)N[C@H](C(=O)N[C@@H](Cc1ccccc1)C(=O)N[C@]1(C)CCCCCCC=CCCC[C@@](C)(C(=O)N[C@@H](CCC(=O)O)C(=O)N[C@@H](C)C(=O)N[C@@H](Cc2ccccc2)C(=O)N[C@@H](C)C(=O)N[C@@H](CCC(N)=O)C(=O)N[C@@H](Cc2ccccc2)C(N)=O)NC(=O)[C@H](CC2CCC2)NC(=O)[C@H](CCC(N)=O)NC(=O)[C@H](C)NC(=O)[C@H](Cc2c[nH]c3ccccc23)NC(=O)[C@H](Cc2ccc(O)cc2)NC(=O)[C@H](CCC(=O)O)NC1=O)[C@@H](C)O [MP-832] (Ac-[Lys(N3)][βAla]LTF[R8]EYWAQ[Cba][S5]EAFAQF-NH2; staple 6-13)	> 50.7	157 (≈ 382 µg/mL)	22.3	4.17	4.88	–	3.01	–	–	–
CC(=O)N[C@@H](CCCCN=[N+]=[N-])C(=O)NCCC(=O)N[C@@H](CC(C)C)C(=O)N[C@H](C(=O)N[C@@H](Cc1ccccc1)C(=O)N[C@]1(C)CCCCCCC=CCCC[C@@](C)(C(=O)N[C@@H](C)C(=O)N[C@@H](C)C(=O)N[C@@H](C)C(=O)N[C@@H](C)C(=O)N[C@@H](C)C(=O)N[C@@H](CCC(=O)O)C(N)=O)NC(=O)[C@H](CC2CCC2)NC(=O)[C@H](CCC(N)=O)NC(=O)[C@H](C)NC(=O)[C@H](Cc2c[nH]c3ccccc23)NC(=O)[C@H](Cc2ccc(O)cc2)NC(=O)[C@H](CCC(=O)O)NC1=O)[C@@H](C)O [MP-836] (Ac-[Lys(N3)][βAla]LTF[R8]EYWAQ[Cba][S5]AAAAAE-NH2; staple 6-13)	> 50.7	164 (≈ 365 µg/mL)	> 49.8	1.05	1.77	–	2.43	–	–	–
CC(=O)N[C@@H](CCCCN=[N+]=[N-])C(=O)NCCC(=O)N[C@@H](CC(C)C)C(=O)N[C@H](C(=O)N[C@@H](Cc1ccccc1)C(=O)N[C@]1(C)CCCCCCC=CCCC[C@@](C)(C(=O)N[C@@H](C)C(=O)N[C@@H](C)C(=O)N[C@@H](C)C(=O)N[C@@H](C)C(=O)N[C@@H](CCC(=O)O)C(=O)N[C@H](C)C(N)=O)NC(=O)[C@H](CC2CCC2)NC(=O)[C@H](CCC(N)=O)NC(=O)[C@H](C)NC(=O)[C@H](Cc2c[nH]c3ccccc23)NC(=O)[C@H](Cc2ccc(O)cc2)NC(=O)[C@H](CCC(=O)O)NC1=O)[C@@H](C)O [MP-837] (Ac-[Lys(N3)][βAla]LTF[R8]EYWAQ[Cba][S5]AAAAE[dA]-NH2; staple 6-13)	> 50.7	160 (≈ 356 µg/mL)	> 49.8	0.66	1.52	–	2.53	–	–	–
CC(=O)N[C@@H](CCCCN=[N+]=[N-])C(=O)NCCC(=O)N[C@@H](CC(C)C)C(=O)N[C@H](C(=O)N[C@@H](Cc1ccccc1)C(=O)N[C@]1(C)CCCCCCC=CCCC[C@@](C)(C(=O)N[C@@H](CO)C(=O)N[C@@H](CCC(=O)O)C(=O)N[C@@H](C)C(N)=O)NC(=O)[C@H](CC2CCC2)NC(=O)[C@H](CCC(N)=O)NC(=O)[C@H](C)NC(=O)[C@H](Cc2c[nH]c3ccccc23)NC(=O)[C@H](Cc2ccc(O)cc2)NC(=O)[C@H](CCC(=O)O)NC1=O)[C@@H](C)O [MP-898]	–	145 (≈ 294 µg/mL)	> 49.8	7.5	0.808	–	2.4	> 50.7	–	–
CC(=O)N[C@@H](CCCCN=[N+]=[N-])C(=O)NCCC(=O)N[C@@H](CC(C)C)C(=O)N[C@H](C(=O)N[C@@H](Cc1ccccc1)C(=O)N[C@]1(C)CCCCCCC=CCCC[C@@](C)(C(=O)N[C@@H](C)C(=O)N[C@@H](CC(C)C)C(=O)N[C@@H](C)C(=O)N[C@@H](C)C(=O)N[C@@H](C)C(=O)N[C@H](C)C(N)=O)NC(=O)[C@H](CC2CCC2)NC(=O)[C@H](CCC(N)=O)NC(=O)[C@H](C)NC(=O)[C@H](Cc2c[nH]c3ccccc23)NC(=O)[C@H](Cc2ccc(O)cc2)NC(=O)[C@H](CCC(=O)O)NC1=O)[C@@H](C)O [MP-968] (Ac-[Lys(N3)][βAla]LTF[R8]EYWAQ[Cba][S5]ALAAA[dA]-NH2; staple 6-13)	> 50.7	–	43.1	1.41	4.2	–	–	–	Poorly Behaved	Poorly Behaved
